Laboratory results taken from US20260234165A1, “MACROCYCLIC COMPOUNDS, PREPARATION METHOD THEREFOR, AND USE THEREOF” (GENFLEET THERAPEUTICS (SHANGHAI) INC., priority 2004, published 2026).
pIC50: −log10 of the molar value. Like-named read-outs stand apart in the source and are kept apart here.

Experiments:
Type in all cases: cell-based, human
[1] = system: AsPC-1 cells (KRAS G12D mutation); assay: 3D cell proliferation assay (CellTiter Glo-3D), AsPC-1; settings: medium with 2% FBS, read-out: AsPC-1 AP IC50
Excerpt: (§1) MIA PaCa-2 cells were purchased from ATCC, Cat. No. CRL-1420; AsPC-1 cells were purchased from ATCC, Cat. No. CRL-1682; NCI-H441 cells were purchased from ATCC, Cat. No. HTB-174: NCI-H1975 cells were purchased from ATCC. Cat. No. CRL-5908; DMEM medium was purchased from Gibco, Cat. No. 11995-065: RPMI-1040 medium was purchased from Gibco. Cat. No. H 18754093; FBS was purchased from Gibco, Cat. No. 10099-141C. penicillin, streptomycin double-antibiotic solution (PS) was purchased from Gibco, Cat. No. 15140-122; Horse serum was purchased from Gibco. Cat. No. 16050130: trypsin (containing EDTA) was purchased from Gibco, Cat. No. 25200-072; DMSO was purchased from VWRAMRESCO, Cat. No. 0231-500ML; 384-well cell culture plates were purchased from Corning, Cat. No. 3830; white-bottomed, opaque 384-well assay plates were purchased from Corning, Cat. No. 3570. CellTiter Glo-3D) kit was purchased from Promega. Cat. No. G9683; cell counter was purchased from CHEMOMETEC, model: NC-200: microplate reader was purchased from PerkinElmer, model: EnVision.
(§2) MIA PaCa-2, a human pancreatic cancer cell strain endogenously containing a KRAS^G12C mutation, was cultured in a complete medium containing DMEM+10% FBS+2.5% Horse serum+1% PS. AsPC-1, a human pancreatic cancer cell strain endogenously containing a […] mutation, was cultured in a complete medium containing RPMI-1640+10% FBS+1% PS. NCI-H441 cells, a human lung cancer cell strain endogenously containing a […] mutation, were cultured in a complete medium containing RPMI-1640+10% FBS+1% PS. NCI-H1975, a KRAS wild-type human lung cancer cell strain whose cell proliferation depends on KRAS activity, was cultured in a complete medium containing RPMI-1640+10% FBS+1% PS.
(§3) The cells were digested with trypsin (containing EDTA), collected in their respective low-serum complete media containing 2% FBS (for MIA Paca-2 cell culture: DMEM+2% FBS+0.5% Horse serum+1% PS), and counted. After the cell density was adjusted as required, 200 MIA PaCa-2 cells, 800 AsPC-1 cells, 800 NCI-H441 cells, or 400 NCI-H1975 cells per well were seeded into a 384-well cell culture plate, with the volume of the medium in each well being 45 μL. The cell culture plate was incubated in an incubator at 37° C. with 5% CO2, overnight. A series of 3.16-fold gradient dilutions of a 1000× compound stock solution were prepared with DMSO, and then diluted 100-fold with the complete medium containing 2% FBS described above to give 10- compound stock solutions. On the day after cell seeding, 5 μL of the 10- compound stock solution was added to each cell culture well. As a result, the final concentration of the compound in the cell culture well became 1×, and the DMSO content in the well was 0.1%. In addition to the compound-treated wells described above, cell-containing DMSO control wells (with 5 μL of the complete medium containing 1% DMSO added to each well) and cell-free medium control wells (containing 50 μL of the complete medium with 2% FBS) were also set. The culture plate was incubated in an incubator at 37° C. with 5% CO2 for another 5 days, and then 30 μL of CellTiter-Glo working solution was added to each well. The mixture was well mixed, incubated for 30 min, left to stand at room temperature for 30 min, and then transferred to a white-bottomed, opaque 384-well assay plate at 40 μL/well. The chemiluminescence values (RLU) were measured using a microplate reader, and the cell proliferation inhibition rate for each well was calculated: IR (%)=(RLUDMSO—RLUcompound)/(RLUDMSO−RLUblank)×100%, where RLUDMSO is the average RLU signal value from the DMSO control well samples, RLUblank is the average RLU signal value from the medium control well samples, and RLUcompound is the RLU signal value from the compound-treated well samples. […]

NCI-H441 cells = assay: 3D cell proliferation assay (CellTiter Glo-3D), NCI-H441; settings: medium with 2% FBS, read-out: H441 AP IC50
Excerpt: as §1, §2, §3

[2] = system: p-ERK in AsPC-1 cells (KRAS G12D mutation); assay: Cell p-ERK assay (HTRF) in AsPC-1 cells; settings: AsPC-1 cells, 3 h compound incubation, HTRF p-ERK T202/Y204, read-out: AsPC-1 p-ERK IC50
Method: AsPC-1 cells were purchased from ATCC, Cat. No. CRL-1682: NCI-H441 cells were purchased from ATCC, Cat. No. HTB-174: RPMI-1640 medium was purchased from Gibco, Cat. No. I1875-093: FBS was purchased from Gibco, Cat. No. 10099-141C: penicillin/streptomycin double-antibiotic solution (PS) was purchased from Gibco, Cat. No. 15140-122: trypsin (containing EDTA) was purchased from Gibco, Cat. No. 25200-072; DMSO was purchased from VWRAMRESCO, Cat. No. 0231-500ML; 96-well cell culture plates were purchased from Corning, Cat. No. 3599: white-bottomed, opaque 96-well plates were purchased from Cisbio, Cat. No. 66PL96025; Advance ERK phospho-T202/Y204 kit was purchased from Cisbio, Cat. No. 64AERPEH; cell counter was purchased from CHEMOMETEC, model: NC-200; microplate reader was purchased from PerkinElmer, model: EnVision.
AsPC-1, a human pancreatic cancer cell strain endogenously containing a KRAS^G12D mutation, was cultured in a complete medium containing RPMI-1640+10% FBS+1% PS. NCI-H441, a human non-small cell lung cancer cell strain endogenously containing a KRAS^G12V mutation, was cultured in a complete medium containing RPMI-1640+10% FBS+1% PS.
The cells were digested with trypsin (containing EDTA), collected in their corresponding complete media, and counted. The density of the cell suspensions was adjusted with their corresponding complete media, and 10000 AsPC-1 cells or 20000 NCI-H441 cells per well were seeded into a 96-well cell culture plate, with the volume of the medium in each well being 80 μL.
The cell culture plate was incubated in an incubator at 37° C. with 5% CO2 overnight. A series of 3.16-fold gradient dilutions of a 1000- compound stock solution were prepared with DMSO, and then diluted 200-fold with the complete medium described above to give 5′ compound stock solutions. On the day after cell seeding, 20 μL of the 5× compound stock solution was added to each cell culture well. As a result, the final concentration of the compound in the cell culture well became 1×, and the DMSO content in the well was 0.1%. In addition to the compound-treated wells described above, cell-containing DMSO control wells were also set. A complete medium containing 0.5% DMSO was added at 20 μL/well. After the mixture was well mixed, the culture plate was incubated in the incubator at 37° C. with 5% CO2 for another 3 h. The medium was then removed from the culture wells, and 50 μL of cell lysis buffer (from Advance ERK phospho-T202,Y204 kit) was added to each well. The mixture was well mixed and incubated for 30 min. Then, 16 μL of the mixture was transferred to a white-bottomed, opaque 96-well assay plate, and separately, 16 μL of cell lysis buffer was added to additional wells (serving as blank wells) in the assay plate. After the transfer was completed, 4 μL of p-ERK HTRF antibody mixture (from Advance ERK phospho-T202/Y204 kit) was added to each well of the assay plate, followed by a 4-hour incubation. The HTRF signal values (RLU) were then measured using a microplate reader, and the inhibition rate of the compound against p-ERK levels was calculated as follows: IR (%)=(RLUDMSO−RLUcompound)/(RLUDMSO−RLUblank)×100%, where RLUDMSO is the average HTRF signal value from the DMSO control well samples, RLUblank is the average HTRF signal value from the blank well samples, and RLUcompound is the HTRF signal value from the compound-treated well samples. Using an XLfit software, the IR (%) values were plotted against the logarithm of the compound concentrations, and the dose-response curves were fitted using the four-parameter method to calculate the IC50 values.

[3] = system: p-ERK in NCI-H441 cells (KRAS G12V mutation); assay: Cell p-ERK assay (HTRF) in NCI-H441 cells; settings: NCI-H441 cells, 3 h compound incubation, HTRF p-ERK T202/Y204, read-out: H441 p-ERK IC50
Summary of the method: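 In this cellular format, endogenous KRAS-mutant lines grown in RPMI-1640 plus 10% FBS received graded compound concentrations for 3 h at 37 °C. Lysates were incubated 4 h with the phospho-T202/Y204 ERK HTRF antibody pair, and percent inhibition relative to DMSO and blank wells was curve-fitted to give IC50.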

[4] = 3D cell proliferation (CellTiter Glo-3D)
[5] = Homo sapiens, NCI-H441, 3D cell proliferation (CellTiter Glo-3D)

pIC50 (NCI-H441 cells; [4]) | pIC50 (NCI-H441 cells; [5]) | pIC50 ([2]; Homo sapiens, ASPC1, 3 h) | pIC50 ([3]; Homo sapiens, NCI-H441, 3 h) | Compound | other results
6.40 |  |  |  | CCn1c(-c2cc(N3CCN(C)CC3)cnc2[C@H](C)OC)c2c3cc(ccc31)-c1csc(n1)C[C@H](Nc1ccccn1)C(=O)N1CCC[C@H](N1)C(=O)OCC(C)(C)C2 (atropisomer, axis not shown; (Ra)) [Compound Z69, (6^3S,Z)-1^1-ethyl-(Ra)-1^2-(2-((S)-1-methoxyethyl)-5-(4-methylpiperazin-1-yl)pyridin-3-yl)-10,10-dimethyl-4-(pyridin-2-ylamino)-6^1,6^2,6^3,6^4,6^5,6^6-hexahydro-1^1H-8-oxa-2(4,2)-thiazola-1(5,3)-indola-6(1,3)-pyridazinacycloundecaphane-5,7-dione] | pIC50 [1, 4]: 6.46
7.26 |  |  |  | (2R)—N-(5-((6^3S,4S,Z)-4-((1r, 2R,3S)-2,3-dimethylcyclopropane-1-carboxamido)-1^1-ethyl-10,10-dimethyl-5,7-dioxo-6^1,6^2,6^3,6^4,6^5,6^6-hexahydro-1^1H-8-oxa-2(4,2)-thiazola-1(5,3)-indola-6(1,3)-pyridazinacycloundecaphane-2-yl)-6-((S)-1-methoxyethyl)pyridin-3-yl)-N,1-dimethylazepane-2-carboxamide [Compound Z355] | pIC50 [2]: 6.96; pIC50 [3]: 7.34
 | 8.38 |  |  | CO[C@@H](C)c1ncc(C#CCN2CCS(=O)(=O)CC2)cc1-c1c2c3cc(ccc3n1C(C)C)-c1csc(n1)C[C@H](Nc1nnc3cc(C)ccn13)C(=O)N1CCC[C@H](N1)C(=O)OCC(C)(C)C2 (atropisomer, axis not shown; (Ra)) [Compound Z913-1, (6^3S,4S,Z)—(Ra)-1^1-(5-(3-(1,1-dioxidothiomorpholino)prop-1-yn-1-yl)-2-((S)-1-methoxyethyl)pyridin-3-yl)-1′-isopropyl-10,10-dimethyl-4-((7-methyl-[1,2,4]triazolo[4,3-a]pyridin-3-yl)amino)-6^1,6^2,6^3,6^4,6^5,6^6-hexahydro-1^1H-8-oxa-2(4,2)-thiazola-1(5,3)-indola-6(1.3)-pyridazinacycloundecaphane-5,7-dione] | pIC50 ([1]; Homo sapiens, ASPC1, 3D cell proliferation (CellTiter Glo-3D)): 8.05
 | 7.56 | 7.04 | 7.58 | CCn1c(-c2cc(N3CCN(C)CC3)cnc2[C@H](C)OC)c2c3cc(ccc31)-c1csc(n1)C[C@H](Nc1cccnn1)C(=O)N1CCC[C@H](N1)C(=O)OCC(C)(C)C2 (atropisomer, axis not shown; (Ra)) [Compound Z457, (6^3S,4S,Z)-1^1-ethyl-(Ra)-1^2-(2-((S)-1-methoxyethyl)-5-(4-methylpiperazin-1-yl)pyridin-3-yl)-10,10-dimethyl-4-(pyridazin-3-ylamino)-6^1,6^2,6^3,6^4,6^5,6^6-hexahydro-1^1H-8-oxa-2(4,2)-thiazola-1(5,3)-indola-6(1,3)-pyridazinacycloundecaphane-5,7-dione] | 
 | 7.23 | 7.16 | 7.55 | CCn1c(-c2cc(N3CCN4CC5(CC5)OC[C@@H]4C3)cnc2[C@H](C)OC)c2c3cc(ccc31)-c1csc(n1)C[C@H](NC(=O)[C@H]1[C@H](C)[C@@H]1C)C(=O)N1CCC[C@H](N1)C(=O)OCC1(CCC1)C2 [Compound Z467, (1r,2R,3S)—N-((3′S,4′S,Z)-1′-ethyl-2′-(2-((S)-1-methoxyethyl)-5-((S)-tetrabydro-4H-spiro[cyclopropane-1,3′-pyrazino[2,1-c][1,4]oxazin]-8′(1′H)-yl)pyridin-3-yl)-5′,7′-dioxospiro[cyclobutane-1,10′-8-oxa-2(4,2)-thiazola-1(5,3)-indola-6(1,3)-pyridazinacycloundecaphan]-4′-yl)-2,3-dimethylcyclopropane-1-carboxamide] | 
